From patent US9796757B2, “Compositions and method for treating thrombosis” (The Board of Trustees of the University of Illinois, priority 2013, dated 2017)
No end group written: not given here. *: point of attachment. Myristoyl = CCCCCCCCCCCCCC(=O)*

Experiments:
[1] = test system: lung ECs; experiment: ex vivo isolated buffer-perfused mouse lung vWF secretion (ELISA of perfusate)
Method: Anesthetized GNA12^−/−, GNA12^−/−/EC GNA13^−/−, GNAq^−/−, and GNAq^−/−/EC GNA11^−/− mice were instrumented with a tracheal tube, cannulated via pulmonary artery, and perfused with warmed Krebs buffer at a rate of 1 ml/min for 5 minutes to remove residual blood constituents followed by treatment for 20 minutes with 2 ml recirculating Krebs buffer to assess constitutive vWF secretion. […] Following lung perfusion, lungs were minced and snap-frozen in liquid nitrogen for subsequent determination of whole lung extract vWF levels.
(§1) Mouse samples were collected and vWF level was measured by sandwich ELISA (Lu, et al. (2011) supra). One unit of vWF was defined as the amount present in 1 ml of mouse pooled normal plasma.
To address the role of G protein α subunits in constitutive (basal, spontaneous) vs. PAR-1-mediated vWF secretion from endothelial cells, vWF was measured in the ex vivo isolated buffer-perfused mouse lung (IPML). Lung preparations were used to exclude platelets as a source of vWF and also hepatic stellate cells as contributors of proteases that cleave ultra large vWF strings (Lenting, et al. (2012) supra). Ventilated WT, Gα12^−/−, and EC-Gαq^−/−; Gα11^−/− mouse lungs were cannulated and perfused with warmed recirculating RPMI media via pulmonary artery and left atrial catheters in situ. To assess basal vWF secretion, precleared blood-free lungs were perfused for 15 minutes with […] of 37° C. recirculating RPMI media (approximately the same volume as the normal mouse blood volume). Samples of the recirculating buffer were collected at 5 minute intervals over a period of 30 minutes and vWF (mU/ml perfusate) was measured by ELISA.
To assess the mechanism of thrombin-induced vWF release from ECs via PAR-1 activation, the PAR-1-specific synthetic peptide Thr-Phe-Leu-Leu-Arg (SEQ ID NO:3) was used to stimulate lung ECs. […] The initial slope of the vWF secretion curve was used to estimate the rate of vWF release following addition of Thr-Phe-Leu-Leu-Arg (SEQ ID NO:3), which was approximately 25 mU/mL/min in WT mouse lungs. […] Under these same conditions, basal vWF secretion in the pulmonary circulation of EC-Gαq^−/−; Gα11^−/− lungs was not different from that observed in WT mice, although Thr-Phe-Leu-Leu-Arg (SEQ ID NO:3)-induced vWF release was reduced by approximately 40%. […] The presence of EC WPB vWF in en face descending aorta and paraffin-embedded lung sections was verified by immunostaining and confocal microscopy. WT, Gα12^−/−, and Gα11^−/− tissues stained positive for vWF consistent with there being equivalent vWF synthesis and storage in WPBs in WT, Gα12^−/−, and Gα11^−/− mice.

[2] = test system: HUVEC; experiment: vWF immunostaining / WPB quantification by confocal microscopy in HUVEC; assay type: cell-based, human
Method: Endothelial cells cultured on gelatin-coated glass bottom dishes were fixed with 4% paraformaldehyde, permeabilized with 0.1% TRITON X-100, blocked with 5% goat serum for 1 hour, and subsequently incubated with rabbit polyclonal antibody directed against vWF (0.5 μg/ml) or contral IgG overnight at 4° C. Coverslips were washed 3× with phosphate-buffered saline and incubated for 30 minutes at room temperature in the dark with ALEXAFLUOR 555 goat anti-mouse and ALEXAFLUOR 488-labeled goat anti-rabbit secondary antibody. Coverslips were washed with phosphate-buffered saline and embedded in mounting media (VECTASHIELD). Confocal microscopy was performed using a ZEISS LSM 510 Meta microscope (Carl Zeiss MicroImaging, Inc.) equipped with 488 nm and 543 nm excitation lasers and pinhole set to achieve 1 Airy unit.
Weibel-Palade Bodies (WPBs) were identified based on vWF immunofluorescence staining, size (approximately 3 μm long and 0.3 μm wide), and shape (elongated organelles). […] The number of WPBs per cell was counted (n=10-30) and the average fluorescence intensity per WPB/cell determined.
To distinguish whether the inhibitory effect of Gα12 depletion on vWF secretion is due to inhibition of vWF secretion as opposed to impaired vWF production or storage, vWF immunostaining and confocal microscopy of control siRNA and Gα12 siRNA-treated HUVECs was performed in presence or absence of thrombin stimulation.
To elucidate the role of Gα12 in WPBs exocytosis, HUVEC were transfected with constitutively-active GFP-tagged Gα12^Q229L mutant, GFP-tagged Gα12^WT, or GFP alone, and then confocal images of vWF immunostaining were quantified.
The role of Gα12/αSNAP interactions in regulation of vWF secretion was analyzed using a two-step experimental approach. First, a library of Gα12-substitution mutants (Meigs, et al. (2005) J. Biol. Chem. 280(18):18049-18055) was used, in which the primary sequence of Gα12 was replaced with the Asn-Ala-Ala-Ile-Arg-Ser (SEQ ID NO:5; NAAIRS cassette) to assess domain-specific in vitro binding of Myc-tagged Gα12^Q229L with or without ‘NAAIRS’ substitution of N-terminal amino acids 4-9 (ΔN4-9) or 10-15 (ΔN10-15) to GST-αSNAP. […] Secondly, to assess the role of Gα12 interaction with α-SNAP in vWF secretion, a GFP-tagged α-SNAP Binding Domain (aa 10-15) minigene (GFP-SBD) was constructed based on the identified Gα12•GST-αSNAP interaction.

[3] = test system: HPAEC; experiment: vWF secretion assay and ELISA in HPAEC; assay type: cell-based, human; conditions: peptide 1 μM, 1 hour pre-incubation, ELISA (FIG. 2), listed as Myr-SBD peptide
Method: vWF secretion assay was as previously described (Lui-Roberts, et al. (2005) J. Cell Biol. 170:627-636). In brief, 48 hours after transfection, endothelial cells were serum-deprived for 4 hours, washed, and incubated with fresh serum-free medium in presence or absence of 25 nM thrombin, A23187 (a calcium ionophore), or culture medium alone (vehicle control). Cell culture media was collected at various time points after agonist stimulation and centrifuged for 10 minutes at 13,000×g to remove cell debris. Supernatants were assayed for vWF content by ELISA. Cells were lysed to determine total vWF secreted per 10^6 cells. The concentration of vWF was expressed as mIU/ml/10^6 cells by relating the absorbance at 450 nm to a vWF standard curve. […] To prevent potential differences in releasable vWF, the same batch of HUVEC was used for all experiments, and control and siRNA treated cells were assessed at equivalent cell densities.
The role of G protein signaling in basal vs. PAR1-stimulated vWF secretion from confluent, low passage, and serum-deprived HUVECs and HPAECs was subsequently determined. […]
It was determined whether Gα12 interaction with αSNAP plays an important role in both basal and evoked VWF secretion from endothelial cell WPBs in vitro and in vivo. […] The effect of Gα12 and Myr-SBD on vWF secretion was assessed as was mortality associated with CLP/sepsis in rodent models. […]

[4] = test system: plasma vWF; experiment: plasma vWF after CLP or SHAM surgery in mice; assay type: in vivo; conditions: 24 hours after SHAM or CLP surgery, i.v. 100 μl of 100 μM (~5 μM) at time of surgery, vs Myr-Scrambled peptide, n=3/group
Method: Mice were anaesthetized by ketamine/xylazine as above and ventilated according to conventional methods. […] Plasma was prepared from citrated blood samples via centrifugation at 3,000×g for 15 minutes at room temperature and stored at −80° C. until vWF measurement by ELISA. The anesthetized mouse was then euthanized for lung tissue collection as described below.
as §1
It was determined whether Gα12 interaction with αSNAP plays an important role in both basal and evoked VWF secretion from endothelial cell WPBs in vitro and in vivo. Myr-SBD peptide (1 μM; 1 hour pre-incubation) blocked both basal VWF secretion and that evoked by thrombin stimulation of HPAEC (FIG. 2). The effect of Gα12 and Myr-SBD on vWF secretion was assessed as was mortality associated with CLP/sepsis in rodent models. […] Importantly, reduced plasma vWF levels (FIG. 3B) were observed 24 hours after SHAM or CLP surgery in mice given 100 μl of 100 μM Myr-SBD (˜5 μM) as compared to mice treated with Myr-Scrambled peptide.

[5] = tail-snip blood loss (primary hemostasis); assay type: in vivo; conditions: EC-Gα13−/−; Gα12−/− mice; i.v. 2 μg/g BW
Method: Mice were anaesthetized using 100 mg/kg ketamine and 5 mg/kg xylazine. Once unresponsive to tail pinch, 3-5 mm of the end of the tail was removed with a scalpel, the tail was immersed in 0.9% saline solution (37° C.), and time required for bleeding to stop was recorded (n=10 male mice/group, age 8-12 weeks) according to established methods (Lu, et al. (2011) Cell Res. 21:530-545). If no cessation of bleeding occurred after 30 minutes, the tail was cauterized with a cautery pencil and 30 minutes was recorded as the bleeding time. Blood loss during the bleeding time experiments was expressed as the accumulated amount of hemoglobin (Hb) bled into the container with phosphate-buffer saline in which tails were immersed. Hb (mg Hb/mL saline) was analyzed over the period of the experiment, using Hemocue HB201+ (Hemocue; Cypress, Calif.). Mice were allowed to recover in a clean cage. […]
Using megakaryocyte-restricted-Gα12/13 double knockout mice, it has been observed that Gα13-dependent signaling in platelets is important for hemostasis and thrombosis (Moers, et al. (2003) Nat. Med. 9(11):1418-1422). However, the molecular mechanisms and functional significance of endothelial cell Gα12 and Gα13 in primary hemostasis were not assessed. […] Hb accumulation from the cut tail immersed in saline solution was measured every 5 minutes for 15 minutes. […]

## CCN1C(=O)C=CC1=O [NEM, N-Ethylmaleimide]
[1]; 1 mM added to recirculating lung perfusion system for 1 minute
  vWF secretion: abolished

## GFP-SBD: GFP-tagged α-SNAP Binding Domain (aa 10-15) minigene expressed in HUVEC (RCLLPA; not fully specified; also: GFP-tagged minigene (fusion))
[2]; GFP-SBD minigene expressed in HUVEC
  thrombin-induced WPB exocytosis: inhibited
[2]; GFP-SBD-expressing HUVECs, control GFP cells significantly reduced (FIG. 1)
  intracellular vWF staining following thrombin stimulation: remained unchanged

## Myr-Arg-Cys-Leu-Leu-Pro-Ala (Myristoyl-RCLLPA) [Myr-SBD]
[3]
  basal VWF secretion: blocks
[3]; thrombin stimulation
  thrombin-evoked VWF secretion: blocks
[4]
  plasma vWF levels: reduced

## Thr-Phe-Leu-Leu-Arg (TFLLR) [Thr-Phe-Leu-Leu-Arg (SEQ ID NO:3)]
[1]; EC-Gαq−/−, Gα11−/− mouse lungs
  reduction of peptide-induced vWF release vs WT: approximately 40%
[1]; Gα12−/− mouse lungs, 30 μM peptide in recirculating perfusate
  rate of vWF secretion: 3 mU/mL/min
[1]; WT mice, 30 μM peptide, remained constant for up to 1 hour
  time to peak vWF level in perfusate: 10 to 15 min
[1]; WT mouse lungs, 30 μM peptide in recirculating perfusate
  rate of vWF release (initial slope of vWF secretion curve): approximately 25 mU/mL/min

## purified human plasma-derived vWF: purified human plasma-derived von Willebrand factor
[5]
  hemostasis (tail-snip blood loss): corrected

## thrombin
[2]; HUVEC transfected with GFP alone, 25 nM thrombin for 15 minutes
  GFP-positive control cells showing reduced vWF positive WPBs: 80%
[2]; control siRNA HUVEC, thirty minutes after thrombin treatment
  decrease in intracellular vWF staining: > 80%
